Read-outs that look alike come from different tables or passages of the source.
How the values were obtained:
[1] = system: cisplatin resistant ovarian cancer cell line A2780 cisR; test: MTS in vitro cytotoxicity, A2780 cisR; type: cell-based, human; settings: 72 hours; for IC50: MTS
Procedure: (§1) Cells were cultured in the appropriate media. […] In order to retain resistance 1 μM cisplatin was added to the media of the A2780 cisR cells every third passage. A2780 cisR cells are resistant to cisplatin through a combination of decreased uptake, enhanced DNA repair/tolerance, and elevated reduced glutathione levels
(§2) All cells were kept in a humidified atmosphere with 5% CO2 at 37° C.; cells from confluent monolayers were removed from flasks by trypsin/EDTA solution and their viability determined by the trypan blue exclusion test.
(§3) Cell growth was determined by the [3-(4,5-dimethylthiazol-2-yl)-5-(3-carboxymethoxyphenyl)-2-(4-sulfophenyl)-2H-tetrazolium, inner salt, (MTS test, Promega, Southampton, UK), a colorimetric assay based on the ability of the viable cells to reduce a soluble yellow tetrazolium salt to blue formazan. 10,000 ovarian cancer cells or 3,000 fibroblast cells for example were seeded per well onto 96-well plates in 100 μl of the appropriate culture medium. 24 hr after sowing the cells, the media was removed and the cells were treated by adding 100 μl of the compound media solutions at the appropriate concentrations. cis-[Pt(NH3)2(malSAHA−2H)], cisplatin and cis-[Pt(NH3)2(mal)] were prepared freshly in cell culture media. […] The maximum percentage of dmso present in any well was less than 0.1% (v/v). cis-[Pt(NH3)2(malBel—2H)], belinostat and malbelinostat were freshly prepared in dimethyl formamide (DMF) and diluted in culture media prior to the MTS assay. The maximum percentage of DMF present in any well was 0.5% (v/v). A range of concentrations between 1 μM and 100 μM was used.
(§4) After 72 hr of treatment, 20 μl of the MTS reagent was added to each well and the plates incubated for 2 hr at 37° C. […] The percentages of surviving cells relative to untreated controls were determined.

[2] = system: ovarian cancer cell line A2780 P; test: MTS in vitro cytotoxicity, A2780 P; type: cell-based, human; settings: 72 hours; for IC50: MTS
Procedure: as §1, §2, §3, §4

[3] = system: A2780 P (ovarian cancer cells); test: Cellular uptake of Pt (FAAS), A2780 P; type: cell-based, human; settings: for Uptake of Pt complexes into A2780 P: 10 μM
Procedure: Cellular uptake of Pt compounds was measured in SKBR, SW480, A549, A2780P and CH1 cells. […] The cell monolayers at the end of the incubation with the Pt complexes were washed (twice) with ice-cold phosphate buffered saline (PBS), trypsinized and harvested into cold (4° C.) PBS. Cell suspensions were centrifuged and the pellets were stored in PBS at −80° C. until assayed. Afterward, the pellets were digested by high pressure microwave mineralization and Pt content was determined by flameless atomic absorption spectrophotometry (FAAS). The results of cellular Pt uptake were corrected for adsorption effects. All experiments were made in triplicate.^17

[4] = system: A2780 cisR (cisplatin resistant ovarian cancer cells); test: Cellular uptake of Pt (FAAS), A2780 cisR; type: cell-based, human; settings: 10 μM, 24 hours treatment
[5] = system: A2780 P ovarian cancer cells; test: Cell cycle progression, flow cytometry (propidium iodide); type: cell-based, human; settings: 72 hr
Procedure: Both floating and attached cells were collected by centrifugation, washed twice in ice-cold PBS, pH 7.4, harvested by scraping with a rubber policeman, and then collected by centrifugation. The effect of drug treatment on cell cycle progression was determined using flow cytometric analysis according to the method of Nunez (2001).^21 Briefly, cell suspensions were fixed and permeabilised by vigorous addition of nine volumes of ice-cold 70% (v/v) ethanol and stored at −20° C. for a minimum of 24 h, prior to analysis. Cells at a density of approximately 1×10^6 were re-suspended in 800 μl of propidium iodide staining solution (20 μg/ml propidium iodide and 200 μg/ml RNase A in PBS, pH 7.4) and incubated in the dark at room temperature for 30 min. The percentage of cells in the sub-G1, G0/G1, S and G2/M phases of the cell cycle was determined over a range of concentrations and time points, and analysed from at least three independent experiments using Cell Quest™ software (Becton Dickinson).

[6] = system: non-tumorigenic human dermal fibroblast cell line (NHDF); test: MTS in vitro cytotoxicity, NHDF; type: cell-based; settings: 72 hours; for IC50: MTS
Procedure: In addition Normal Neonatal Human Dermal Fibroblast, NHDF, cells were cultured in Fibroblast Basal Medium (FBM®, Clonetics, Walkersville, USA) supplemented with hFGF-B, insulin, 5% FBS and gentamicin/amphotericin-B (FGM®-2 SingleQuots, Clonetics, Walkersville, USA).
as §2, §3, §4

[7] = system: SW480 (colon cancer cells); test: Cellular uptake of Pt (FAAS), SW480; type: cell-based; settings: 10 μM, 72 hours treatment
Procedure: Cellular uptake of Pt compounds was measured in SKBR, SW480, A549, A2780P and CH1 cells. The cells were seeded in 60 mm tissue culture dishes with 10 mL of their respective medium and after overnight incubation, the cells were treated with the Pt complexes for 72 h at 10 μM concentration. The cell monolayers at the end of the incubation with the Pt complexes were washed (twice) with ice-cold phosphate buffered saline (PBS), trypsinized and harvested into cold (4° C.) PBS. Cell suspensions were centrifuged and the pellets were stored in PBS at −80° C. until assayed. Afterward, the pellets were digested by high pressure microwave mineralization and Pt content was determined by flameless atomic absorption spectrophotometry (FAAS). The results of cellular Pt uptake were corrected for adsorption effects. All experiments were made in triplicate.^17

[8] = system: lung cancer cell line (A549); test: MTS in vitro cytotoxicity, A549; type: cell-based; settings: 72 hours, Table 1, read-out: IC50 values against A549
Procedure: as §2, §3, §4

[9] = Table 5, read-out: IC50 (μM) ± S.E.M. against A2780CisR
[10] = Table 5, read-out: IC50 (μM) ± S.E.M. against A2780P
[11] = Table 5, read-out: IC50 (μM) ± S.E.M. against NHDF
[12] = Table 1, read-out: IC50 values against A2780cisR
[13] = Table 1, read-out: IC50 values against A2780 P
[14] = Table 1, read-out: IC50 values against NHDF

Row | SMILES | IC50 [1, 9] | IC50 [2, 10] | Uptake of Pt complexes into A2780 P ([3]; 24 hours treatment) | Uptake of Pt complexes into A2780 cisR [4] | % G0/G1 ± S.E.M. ([5]; concentration equal to IC50) | % G2/M ± S.E.M. ([5]; concentration equal to IC50) | % S ± S.E.M. ([5]; concentration equal to IC50) | % Sub-G1 ± S.E.M. ([5]; concentration equal to IC50) | % G0/G1 ± S.E.M. ([5]; concentration equal to IC75) | % G2/M ± S.E.M. ([5]; concentration equal to IC75) | % S ± S.E.M. ([5]; concentration equal to IC75) | % Sub-G1 ± S.E.M. ([5]; concentration equal to IC75) | IC50 [6, 11] | IC50 [1, 12] | IC50 [2, 13] | Uptake of Pt complexes into SW480 [7] | Uptake of Pt complexes into A2780 P ([3]; 72 hours treatment) | IC50 [8] | IC50 [6, 14] | also measured
1 | [NH2][Pt]1([NH2])[O]C(=O)C(Cc2ccc(NS(=O)(=O)c3ccc(/C=C/C(=O)NO)cc3)cc2)C(=O)[O]1 [cis-[Pt(NH3)2(malBel−2H)], cis-[Pt(NH3)2(malBel−2H)].1.5H2O] | 11.7 ± 0.9 µM | 7.6 ± 0.3 µM | 154 ± 10 pmol Pt/2 × 10^6 cell | 42.3 ± 5.3 pmol Pt/2 × 10^6 cell | 16.16 ± 0.88% | 7.91 ± 0.03% | 7.21 ± 0.11% | 60.86 ± 0.26% | 11.75 ± 0.17% | 8.04 ± 0.72% | 5.59 ± 0.36% | 67.67 ± 0.43% | 33.9 ± 2 µM |  |  |  |  |  |  | activity against cisplatin resistant A2780 cisR (in words) ([1]; cytotoxicity): retains activity against A2780 cisR cell line; selectivity for A2780 P over normal cell line NHDF ([2]; cytotoxicity): displays selectivity for A2780 P cancer cell line over representative normal cell line NHDF; uptake by cancer cells (in words) ([3]; 24 hours treatment, A2780 P and A2780 cisR): is taken up by cancer cells after 24 hours treatment; sub-G1 accumulation (in words) ([5]; A2780 P): dose dependent increase in sub-G1 accumulation compared to control cells
2 | [NH2][Pt]1([NH2])[O]C(=O)C(Cc2ccc(NC(=O)CCCCCCC(=O)NO)cc2)C(=O)[O]1 [cis-[Pt(NH3)2(malSAHA−2H)], cis-[Pt(NH3)2(malSAHA−2H)].3H2O] |  |  |  |  |  |  |  |  |  |  |  |  |  | 70 ± 3.5 µM | 9 ± 3.1 µM | 5422 ± 222 pmol Pt/2 × 10^6 cell | 5535 ± 865 pmol Pt/2 × 10^6 cell | 12.7 ± 1.8 µM | 83 ± 7.6 µM | selectivity for cancer cell lines over normal cell line NHDF ([6]; cytotoxicity): displays selectivity for cancer cell lines over representative normal cell line NHDF
3 | N.N.[Cl][Pt][Cl] [cisplatin, cis-[Pt^II(NH3)2Cl2], reference compound] | 9.8 ± 1 µM | 1.3 ± 0.1 µM | 290 ± 35 pmol Pt/2 × 10^6 cell | 98 ± 11 pmol Pt/2 × 10^6 cell | 18.58 ± 0.58% | 5.44 ± 0.04% | 5.33 ± 0.13% | 64.16 ± 0.74% | 20.88 ± 0.14% | 4.73 ± 0.13% | 5.81 ± 0.30% | 61.81 ± 0.39% | 2.4 ± 0.6 µM | 28.5 ± 1.5 µM | 2.9 ± 0.1 µM | 391.95 ± 51.95 pmol Pt/2 × 10^6 cell | 612.25 ± 107.75 pmol Pt/2 × 10^6 cell | 6.3 ± 0.1 µM | 10 ± 1.8 µM | 

From patent US8901337B2, “Metal complexes having dual histone deacetylase inhibitory and DNA-binding activity” (Royal College of Surgeons in Ireland, priority 2009, dated 2014)
